Assay results reported in patent US20240130675A1, “Methods for Treating Autism Spectrum Disorder” (The General Hospital Corporation, priority 2021, published 2024).

Legend:
youth with ASD = test: 12-week randomized, double-blind, placebo-controlled trial: efficacy on autism related impairments (SRS-2, CGI-I, ABC-Social Withdrawal, CY-BOCS-PDD); type: in vivo, human; set-up: SRS-SCI / SRS-Social Cognition / SRS-Social Awareness / SRS-Social Motivation / SRS-Social Communication / SRS-Autistic Mannerisms / ABC-Social Withdrawal: scale not given here; settings: for ABC-Social Withdrawal / CY-BOCS-PDD / SRS-Autistic Mannerisms / SRS-SCI / SRS-Social Awareness / SRS-Social Cognition / SRS-Social Communication / SRS-Social Motivation / SRS-Total: MEM [N = 16]
Experimental: This study was a 12-week, randomized, double-blind, placebo-controlled, parallel group clinical trial of memantine in youth with ASD. Youth with ASD who met the eligibility criteria were randomized to receive either memantine or placebo during the course of the 12-week trial. Participants underwent multimodal MRI scans prior to and upon completion of the 12-week trial. Participants were assessed weekly during the titration phase (baseline to Week 4) and at midpoint (Week 6), Week 9, and completion (Week 12) during the maintenance phase. At each study visit, safety and efficacy were assessed by administering measures of efficacy (CGI, GAF), tolerability (assessing treatment-emergent AEs), and safety (vital signs, including weight). At baseline, midpoint, and endpoint (completion/early termination) severity of autism was assessed by administering measures of autism severity (SRS-2, ABC-SW, CY-BOCS-PDD) and associated psychopathology (ADHD-RS, CDRS-R, CASI-ANX).
Eligible participants were of both sexes, aged 8 to 17 years, with intact intellectual ability, as established by a full-scale intelligence quotient of 85 or greater based on the Vocabulary and Matrix Reasoning subtests of the Wechsler Abbreviated Scale of Intelligence-Second Edition (WASI-II (Wechsler, 2011)). Participants were required to meet DSM-IV-TR/5 diagnostic criteria for autism, as established by clinical diagnostic evaluation and to have at least moderate severity of ASD, as determined by a total raw score of 85 or greater on the informant-rated Social Responsiveness Scale-Second Edition (SRS-2; (Constantino et al., 2003)) and a score of 4 or greater on the clinician-rated National Institute of Mental Health (NIMH) Clinical Global Impression (CGI) severity scale (CGI-S; (National Institute of Mental Health, 1985)).
In this 12-week, randomized, double-blind, placebo-controlled, parallel group clinical, ASD participants were randomized in a 1:1 ratio to receive memantine or placebo. An independent statistician created a computer-generated randomization schedule, using stratified randomization by sex (male vs. female) and race (Caucasian vs. Non-Caucasian). The Clinical Trials Pharmacy at MGH dispensed the study medication (memantine and placebo) based on the randomization schedule. The randomization schedule remained confidential throughout the study.
Study medication was titrated to the maximum daily dose during the first 4 weeks of the trial (dose titration phase) and from there on, subjects were maintained on maximum achieved dose until the end of the trial (dose maintenance phase). Titration of the study medication was guided by a flexible titration schedule which allowed for slower titration or maintaining at a lower dose, as guided by study clinician judgment of tolerability. Study medication was administered in divided dosages. Study medication was initiated at 2.5 mg/day (raised to 5 mg/day on day 4) and was up-titrated by 5 mg/week to a maximum dose of 20 mg/day.
The efficacy of memantine for the treatment of autism related impairments was assessed by the informant-rated Social Responsiveness Scale—Second Edition (SRS-2) as continuous outcome measure, and by the clinician-rated CGI-I subscale, as categorical outcome measure. Treatment response criteria for this trial was defined as≥25% improvement on the SRS-2 and a score of 2 or 1 on the CGI-I subscale, i.e., “much” or “very much improved.”
Additional treatment response of autism impairment was examined for the ASD subdomains by assessing change with treatment in the severity of the SRS-2 subscales and the Children's Yale Brown Obsessive Compulsive Scale modified for PDD (CY-BOCS-PDD) (Goodman et al., 1986 (Rev 89); Scahill et al., 2006) to assess change with treatment in the ritualistic behaviors associated with ASD. […]

adults with HF-ASD = settings: cited from earlier work

## CC12CC3CC(C)(C1)CC(N)(C3)C2 [MEM, memantine]
Youth with ASD; Cohen's d, MEM vs PBO
  SRS-Social Awareness, ES [95% CI]: 0.74
  SRS-Social Cognition, ES [95% CI]: 0.83
Youth with ASD; BL (baseline)
  ABC-Social Withdrawal: 12.5 ± 8.6
  CY-BOCS-PDD: 2.9 ± 5.4
  SRS-Autistic Mannerisms: 21.1 ± 5.9
  SRS-SCI: 93.5 ± 17.0
  SRS-Social Awareness: 14.3 ± 3.0
  SRS-Social Cognition: 20.0 ± 3.9
  SRS-Social Communication: 40.1 ± 8.1
  SRS-Social Motivation: 19.1 ± 6.9
  SRS-Total: 114.5 ± 21.3
Youth with ASD; EP (endpoint)
  ABC-Social Withdrawal: 5.6 ± 5.4
  CY-BOCS-PDD: 1.9 ± 4.0
  SRS-Autistic Mannerisms: 13.4 ± 3.8
  SRS-SCI: 63.8 ± 20.0
  SRS-Social Awareness: 10.7 ± 3.0
  SRS-Social Cognition: 13.7 ± 4.5
  SRS-Social Communication: 27.0 ± 10.4
  SRS-Social Motivation: 12.4 ± 5.7
  SRS-Total: 77.0 ± 22.5
Youth with ASD; MD (mean difference)
  ABC-Social Withdrawal: −6.9 ± 7.0
  CY-BOCS-PDD: −0.9 ± 2.1
  SRS-Autistic Mannerisms: −7.8 ± 6.4
  SRS-SCI: −29.8 ± 22.2
  SRS-Social Awareness: −3.6 ± 3.9
  SRS-Social Cognition: −6.3 ± 5.6
  SRS-Social Communication: −13.0 ± 9.4
  SRS-Social Motivation: −6.8 ± 5.4
  SRS-Total: −37.6 ± 27.9
Youth with ASD; Odds Ratio, MEM vs PBO
  ≥25% ↓↓SRS + CGI-I ≤ 2, ES [95% CI]: 4.82
Adults with HF-ASD; 12-week treatment, 20 mg/day, adults with HF-ASD
  Social behaviors: significant improvement in social behaviors
Adults with HF-ASD; pilot study, 15-20 mg daily
  Responders: four out of seven
